What was measured:
rat lung ECE = molecular target: T1, rat lung ECE (Rattus norvegicus, UniProt P42893); assay: ECE inhibitory activity (rat lung ECE, conversion of human big ET-1 to ET-1, sandwich enzyme immunoassay); format: biochemical; conditions: rat lung ECE 10 µg, human big ET-1 0.8µg, 37°C, one hour
T1 construct: The solution was ultracentrifuged to obtain a supernatant, which can be used as the rat lung ECE; from tissue; host or cells: rat lung
T1 sequence (P42893 1-762): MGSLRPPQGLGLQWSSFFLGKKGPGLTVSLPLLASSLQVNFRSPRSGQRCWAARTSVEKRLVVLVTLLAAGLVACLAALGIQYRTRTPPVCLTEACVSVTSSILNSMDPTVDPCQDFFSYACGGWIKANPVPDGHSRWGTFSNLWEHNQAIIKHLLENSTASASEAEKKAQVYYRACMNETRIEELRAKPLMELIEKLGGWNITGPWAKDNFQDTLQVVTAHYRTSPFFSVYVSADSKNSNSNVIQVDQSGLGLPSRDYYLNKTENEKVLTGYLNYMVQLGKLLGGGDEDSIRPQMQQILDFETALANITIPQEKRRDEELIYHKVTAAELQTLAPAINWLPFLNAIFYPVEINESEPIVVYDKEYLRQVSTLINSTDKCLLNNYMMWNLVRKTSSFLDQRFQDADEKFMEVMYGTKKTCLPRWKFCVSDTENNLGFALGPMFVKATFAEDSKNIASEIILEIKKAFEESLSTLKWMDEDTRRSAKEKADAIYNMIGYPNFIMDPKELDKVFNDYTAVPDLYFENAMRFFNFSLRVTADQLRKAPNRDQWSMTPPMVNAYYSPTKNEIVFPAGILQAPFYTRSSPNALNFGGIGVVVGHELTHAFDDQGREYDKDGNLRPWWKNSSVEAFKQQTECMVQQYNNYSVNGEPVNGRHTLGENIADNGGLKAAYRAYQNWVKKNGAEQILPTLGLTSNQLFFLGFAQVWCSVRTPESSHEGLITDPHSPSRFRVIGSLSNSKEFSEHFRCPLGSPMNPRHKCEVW
Experimental: Preparation of rat lung ECE and measurement of ECE inhibitory activity
Rat lung tissue was homogenized with a homogenizer in ice-cold 20 mM Tris-HCl buffer (pH7.5) containing 5 mM magnesium chloride, 1 mM phenylmethylsulfonyl fluoride (PMSF), 20 µM pepstatin A, and 20 µM leupeptin. The homogenate was centrifuged at 800 x G, and the supernatant was ultracentrifuged at 100,000 x G. Then, the procedures in which the resulting pellet was resuspended in the above buffer and ultracentrifuged as shown above, were repeated further twice so that plasma components and the like were removed. The resulting pellet was suspended, homogenized with a glass homogenizer, and ultracentrifuged. The resulting pellet was solubilized in 0.5% Triton X- 100. The solution was ultracentrifuged to obtain a supernatant, which can be used as the rat lung ECE. Each test compound and the rat lung ECE (10 µg) were preincubated at 37°C for 15 minutes in a 100mM Tris-HCl buffer (pH7.0) containing 1mM NEM, 100µM leupeptin, and 20µM pepstatin A, and then human big ET-1 (0.8µg) was added thereto (totally 200µl), and the mixture was incubated at 37°C for one hour.
The reaction was stopped by the addition of EDTA to give a final concentration of 1mM. ECE activities were determined to quantify the produced ET-1 by the ET-1 specific sandwich enzyme immunoassay method.
ECE inhibitory activities of the test compounds were evaluated by determination of the ECE activities in the presence or absence of the test compounds.

ECE = molecular target: T2, ECE (Rattus norvegicus, UniProt P42893); assay: Effect on the change in blood pressure induced by big ET-1 in anesthetized rats (ECE inhibition in vivo); set-up: species or system Male SD rat; conditions: for Increase in systolic pressure: 15 minutes before big ET-1 (1nmol/kg i.v.), vehicle group 96 ± 4
T2 construct: from tissue; host or cells: whole anesthetized male SD rat (in vivo)
T2 sequence (P42893 1-762): T1 sequence (P42893 1-762)
Experimental: Test 2 Effect on the change in blood pressure induced by big ET-1 in rats
Male SD rat (body weight 230∼280g) was anesthetized with sodium thiobarbiturate (65mg/kg, i.p.) and fixed on a warming surgical bed, and the right femoral artery and the vein were cannulated for measurement of arterial blood pressure and for injection of test compounds, respectively. The ganglia were blocked by intraperitoneal administration of pentolinium (10mg/kg). After stabilization of blood pressure for about 10 minutes, test compound or its vehicle (polyethylene glycol 400) was administered intravenously (0.5ml/kg). Fifteen minutes later, the big ET-1 (1nmol/kg) was administered intravenously. ECE inhibitory activities of the test compounds in vivo shown by an index of the change in blood pressure induced by big ET-1 were evaluated by inhibitory ratio to that of the vehicle group.

stromelissin = stromelissin (Homo sapiens, UniProt P08254); assay: Inhibitory activity against metalloproteases other than ECE (stromelissin); format: biochemical; conditions: at 10^-5M
stromelissin, sequence (P08254 100-477): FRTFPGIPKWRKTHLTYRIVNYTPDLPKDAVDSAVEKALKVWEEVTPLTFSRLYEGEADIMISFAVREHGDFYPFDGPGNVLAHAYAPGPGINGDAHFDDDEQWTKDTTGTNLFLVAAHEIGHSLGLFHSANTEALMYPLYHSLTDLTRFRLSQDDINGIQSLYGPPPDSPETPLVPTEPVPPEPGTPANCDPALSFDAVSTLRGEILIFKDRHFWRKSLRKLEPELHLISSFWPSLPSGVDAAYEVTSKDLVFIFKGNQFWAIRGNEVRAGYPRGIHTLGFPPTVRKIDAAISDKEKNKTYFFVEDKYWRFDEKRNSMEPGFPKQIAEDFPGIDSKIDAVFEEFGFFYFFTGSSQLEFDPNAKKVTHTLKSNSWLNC
Description: (§1) The inhibitory activity of the compound of Preparation 1 against metalloproteases other than ECE, such as endopeptidase, stromelissin, and the like, are under 20% at 10^-5M, and therefore, the compound is highly specific to ECE.

endopeptidase = assay: Inhibitory activity against metalloproteases other than ECE (endopeptidase); format: biochemical; conditions: at 10^-5M
Description: as §1

Row | IC50 (rat lung ECE) [nM] | inhibition at 10 µM (stromelissin) [%] | inhibitory activity (endopeptidase) | SMILES | Big ET-1-induced increasing in blood pressure (ECE; 3 and 10mg/kg intravenously) | Increase in systolic pressure (ECE; Dose 3 mg/kg intravenously) [mmHg] | Increase in systolic pressure (ECE; Dose 10 mg/kg intravenously) [mmHg]
1 | 45 | – | – | Cc1nn(-c2ccccc2)c(NC(=O)NS(=O)(=O)c2ccc(Cl)cc2)c1C#N [Example 37, 4-cyano-3-methyl-1-phenyl-5-{3-(4-chlorobenzenesulfonyl)ureido}-(1H)-pyrazole] | apparently inhibited | 65 ± 8 | 34 ± 6
2 | 4600 | < 20 | under 20% | Cc1ccc(S(=O)(=O)NC(=O)Nc2c(C#N)cnn2-c2ccccc2)cc1 [Preparation 1, 4-cyano-1-phenyl-5-{3-(4-toluenesulfonyl)ureido}-(1H)-pyrazole] | – | – | –
3 | 290 | – | – | Cc1ccc(S(=O)(=O)NC(=O)Nc2c(C#N)cnn2C2CCCCC2)cc1 [Example 4, 4-cyano-1-cyclohexyl-5-{3-(4-toluenesulfonyl)ureido}-(1H)-pyrazole] | – | – | –

Source: patent EP0885890A1, “SULFONYLUREIDOPYRAZOLE DERIVATIVES” (SUMITOMO PHARMACEUTICALS COMPANY, LIMITED, priority 1996, dated 1997)
